According to patent US11285220B2, “Materials and methods relating to linkers for use in protein drug conjugates” (Iksuda Therapeutics Limited, priority 2014, dated 2022):

Test: Reactivity of PL13 free acid with aspartic acid
Conditions: 10 equivalents Asp, pH 7.0, 18 hours, RT
Protocol: PL13 free acid was treated with 10 equivalents of aspartic acid (Asp) at pH 7.0 and at RT. Analysis was performed by RP-HPLC at gradient of 1% to 50% B over 15 minutes with detection at 254 nm.
50 μL of 2.61 mM PL13 free acid in methanol was mixed with […] of […] in buffer to give a final concentration of 0.42 mM PL13 free acid and 4.2 mM Asp.

stability in the presence of Asp: stable
Structure (SMILES): C=Cc1cc(C)nc(CCC(=O)O)c1 [PL13 free acid]
